Measured values published in patent US9156809B2, “Carboxy ester ketals, methods of manufacture, and uses thereof” (SEGETIS, INC., priority 2012, dated 2015).

Legend:
[1] = Hydrolytic stability of coalescent solvents at elevated temperature (45° C.); format: physicochemical; conditions: 1.0 g coalescent in 10 g Rhoplex SG-10M; for Initial pH: adjusted to pH 9 with ammonia, 45° C. study; for pH 1 week / pH 2 weeks: stored at 45° C.
Protocol: (§1) Latex formulations were prepared by adding 1.0 gram of each coalescent solvent to 10 grams of an acrylic latex (Rhoplex SG-10M available from Dow Chemical Company) and adjusting the pH of each sample to a pH of 9 using ammonia. A control latex formulation was prepared without adding a coalescent solvent.

[2] = Compatibility between waxes and alkyl ketal esters; format: physicochemical
Source text: Compatibility between various waxes and the alkyl ketal esters are first determined as detailed below. Table 13 below details the fragrant formulations for different candles that contain the fragrant composition.

[3] = Solubility of personal care or medicinal active agents in ketal; conditions: 50/50 mixture, room temperature
Source text: Certified organic tea tree oil (Melaleuca alternifolia, plant sourced from Australia and extracted by steam distillation) can be purchased from Wyndmere Naturals.
The recommended usage rate is 0.1-1%.
The recommended usage rate is 0.01-0.05%.

[4] = Miscibility of alkyl ketal ester with essential oil; format: physicochemical; conditions: room temperature
Source text: The alkyl ketal ester and the essential oil are blended in a weight ratio of 1:1 at room temperature using gentle agitation. Solubility is visually determined immediately after mixing. Clear solutions are described as “miscible” and solutions that are either cloudy or show evidence of a second phase are labeled as “immiscible.”

[5] = Hydrolytic stability of coalescent solvents at room temperature (pH of latex formulation); format: physicochemical; conditions: 1.0 g coalescent in 10 g Rhoplex SG-10M; for Initial pH: adjusted to pH 9 with ammonia, room temperature; for pH 1 week / pH 2 weeks / pH 3 weeks / pH 4 weeks: stored at room temperature
Source text: The pH of latex formulations containing ester-functionalized coalescent solvents was monitored over time to evaluate hydrolytic stability of the coalescent solvents. Not wishing to be bound by theory, ester hydrolysis may occur at a high alkaline pH (for example a pH greater than about 9) during storage of latex compositions. The resulting hydrolysis products lower the pH of the latex composition and could decrease the coalescing efficiency of the coalescing solvent with respect to the initial amount of the coalescing solvent.
as §1

[6] = Relative VOC content / volatility by TGA emulating ASTM D2369; conditions: 110° C., nitrogen purge, 15 mg
Protocol: Here, 15 milligrams (mg) of each coalescent solvent was maintained at 110° C. for one hour with a nitrogen purge in a thermogravimetric analyzer (TGA).

[7] = Model ethanolic sunscreen solutions, miscibility; format: physicochemical; conditions: by itself
Protocol: Three-component mixtures of ketal, ethanol, and avobenzone are prepared by mixing the materials at various proportions at room temperature in a vial and shaking. Avobenzone by itself is immiscible in ethanol at the 5% by weight level. The ketals used are as follows: A: ketal is 2EH-LPK; Example B: ketal is 1N-LPK. Example C: ketal is 355TMH-LPK.
Three-component mixtures of ketal, ethanol, and oxybenzone are prepared by mixing the materials at various proportions at room temperature in a vial and shaking. The ketals used are as follows: A: ketal is 2EH-LPK; Example B: ketal is 1N-LPK. Example C: ketal is 355TMH-LPK. Clear mixtures are considered to be “miscible” on this test, whereas cloudy or phase separated mixtures are considered to be “immiscible.” Oxybenzone by itself is immiscible in ethanol at the 10% by weight level.

[8] = Beeswax, 50/50 weight ratio, heated to 80° C., cooled to room temperature
[9] = Carnauba wax, 50/50 weight ratio, heated to 120° C.
[10] = Paraffin wax, 50/50 weight ratio, heated to 80° C., cooled to room temperature
[11] = Paraffin wax, 75/25 weight ratio, heated to 80° C., cooled to room temperature
[12] = Stearic acid, 50/50 weight ratio, heated to 80° C., cooled to room temperature
[13] = with Basil (Ocimum basilicum) essential oil
[14] = with Bergamot (Citrus bergamia) essential oil
[15] = with Birch sweet (Betula lenta) essential oil
[16] = with Citronella (Cymbopogon nardus) essential oil
[17] = with Coriander seed (Coriandrum sativum) essential oil
[18] = with Geranium (Pelargonium graveolens) essential oil
[19] = with Lavender (Lavandula angustifolium) essential oil
[20] = with Myrrh (Commiphora myrrha) essential oil
[21] = with Orange (Citrus sinensis) essential oil
[22] = with Patchouli (Pogostemon patchouli) essential oil
[23] = with Pine needle (pinus sylvestris) essential oil
[24] = with Vetiver (Vetivera zizanoides) essential oil
[25] = with Ylang ylang (Canaga odorata) essential oil

Compound	Initial pH [1]	pH 1 week [1]	pH 2 weeks [1]	Compatibility with wax upon cooling [2, 8]	Compatibility with wax upon cooling [2, 9]	Compatibility with wax upon cooling [2, 10]	Compatibility with wax upon cooling [2, 11]	Compatibility with wax upon cooling [2, 12]	Miscibility with tea tree oil [3]	Miscibility of 50/50 blend by weight [4, 13]	Miscibility of 50/50 blend by weight [4, 14]	Miscibility of 50/50 blend by weight [4, 15]	Miscibility of 50/50 blend by weight [4, 16]	Miscibility of 50/50 blend by weight [4, 17]	Miscibility of 50/50 blend by weight [4, 18]	Miscibility of 50/50 blend by weight [4, 19]	Miscibility of 50/50 blend by weight [4, 20]	Miscibility of 50/50 blend by weight [4, 21]	Miscibility of 50/50 blend by weight [4, 22]	Miscibility of 50/50 blend by weight [4, 23]	other results
CCCCCCCCCOC(=O)CCC1(C)OCC(C)O1 (stereo not drawn) [1N-LPK, 1-nonyl levulinate propylene glycol ketal]	8.92	8.75	8.63	single homogenous wax layer	single homogenous wax layer	single homogenous wax layer	single homogenous wax layer	single homogenous wax layer	miscible	Miscible	Miscible	Miscible	Miscible	Miscible	Miscible	Miscible	Miscible	Miscible	Miscible	Miscible	Miscibility of 50/50 blend by weight [4, 24]: Miscible; Miscibility of 50/50 blend by weight [4, 25]: Miscible
CC(C)OC(=O)CCC1(C)OCC(C)O1 (stereo not drawn) [iPrLPK, isopropyl levulinate propylene glycol ketal]	–	–	–	–	–	–	–	–	–	–	–	–	–	–	–	–	–	–	–	–	Initial pH [5]: 8.93; pH 1 week [5]: 8.79; pH 2 weeks [5]: 8.73; pH 3 weeks [5]: 8.71; pH 4 weeks [5]: 8.64
2,2,4-trimethyl-1,3-pentanediol monoisobutyrate [TPM]	–	–	–	–	–	–	–	–	–	–	–	–	–	–	–	–	–	–	–	–	% mass remaining ([6]; 0 min): 100%; % mass remaining ([6]; 5 min): 74%; % mass remaining ([6]; 10 min): 49%; % mass remaining ([6]; 15 min): 26%; % mass remaining ([6]; 20 min): 4%; % mass remaining ([6]; 30 min): 0%; % mass remaining ([6]; 60 min): 0%
CCOC(=O)CCC1(C)OCC(C)O1 (stereo not drawn) [EtLPK, ethyl levulinate propylene glycol ketal]	8.95	8.06	7.53	–	–	–	–	–	–	–	–	–	–	–	–	–	–	–	–	–	Initial pH [5]: 9.00; pH 1 week [5]: 8.69; pH 2 weeks [5]: 8.53; pH 3 weeks [5]: 8.41; pH 4 weeks [5]: 8.24
CCCCC(CC)COC(=O)CCC1(C)OCC(C)O1 (stereo not drawn) [2EH-LPK, 2-ethylhexyl levulinate propylene glycol ketal]	–	–	–	single homogenous wax layer	single homogenous wax layer	single homogenous wax layer	single homogenous wax layer	single homogenous wax layer	miscible	Miscible	Miscible	Miscible	Miscible	Miscible	Miscible	Miscible	Miscible	Miscible	Miscible	Miscible	Initial pH [5]: 8.97; pH 1 week [5]: 8.99; pH 2 weeks [5]: 8.94; pH 3 weeks [5]: 9.03; pH 4 weeks [5]: 9.00; Miscibility of 50/50 blend by weight [4, 24]: Miscible; Miscibility of 50/50 blend by weight [4, 25]: Miscible
COc1ccc(C(=O)CC(=O)c2ccc(C(C)(C)C)cc2)cc1 [Avobenzone, avobenzone]	–	–	–	–	–	–	–	–	–	–	–	–	–	–	–	–	–	–	–	–	Miscibility in ethanol ([7]; 5% by weight level in ethanol): immiscible
COc1ccc(C(=O)c2ccccc2)c(O)c1 [Oxybenzone, oxybenzone]	–	–	–	–	–	–	–	–	–	–	–	–	–	–	–	–	–	–	–	–	Miscibility in ethanol ([7]; 10% by weight level in ethanol): immiscible
CC(CCOC(=O)CCC1(C)OCC(C)O1)CC(C)(C)C (stereo not drawn) [355TMH-LPK, 3,5,5-trimethylhexyl levulinate propylene glycol ketal]	8.92	8.78	8.64	single homogenous wax layer	single homogenous wax layer	single homogenous wax layer	single homogenous wax layer	single homogenous wax layer	miscible	Miscible	Miscible	Miscible	Miscible	Miscible	Miscible	Miscible	Miscible	Miscible	Miscible	Miscible	Miscibility of 50/50 blend by weight [4, 24]: Miscible; Miscibility of 50/50 blend by weight [4, 25]: Miscible
